Test results from ChEMBL document CHEMBL1938304, “Synthesis, characterization and activity of new phosphonate dipeptides as potential inhibitors of VanX” (Bioorg Med Chem Lett, 2012).
Calls of active or inactive are those of the source. No cut-off for these calls is given here.

Tests used:
[1] = Inhibition of metallo-betalactamase ImiS using penicillin G as substrate up to 1 mM and pH 7
[2] = Inhibition of metallo-betalactamase L1 using penicillin G as substrate up to 1 mM and pH 7
[3] = target: T1, D-alanyl-D-alanine dipeptidase (Enterococcus faecium, UniProt Q06241); experiment: Inhibition of Enterococcus faecium VanX overexpressed in Escherichia coli BL21 (DE3) cells using D-ala-D-ala as substrate preincubated for 30 mins measured after 150 secs by modified Cd-ninhydrin method
T1 sequence (Q06241 whole entry): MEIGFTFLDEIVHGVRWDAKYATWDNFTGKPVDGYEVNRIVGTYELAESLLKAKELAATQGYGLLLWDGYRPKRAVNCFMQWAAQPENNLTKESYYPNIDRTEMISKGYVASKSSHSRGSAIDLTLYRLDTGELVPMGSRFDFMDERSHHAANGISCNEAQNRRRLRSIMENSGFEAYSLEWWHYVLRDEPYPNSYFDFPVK

[4] = Inhibition of metallo-betalactamase CCrA using penicillin G as substrate up to 1 mM and pH 7
[5] = target: T2, D-alanyl-D-alanine dipeptidase (Enterococcus faecium) (UniProt Q06241); experiment: Inhibition of Enterococcus faecium VanX overexpressed in Escherichia coli BL21 (DE3) cells using D-ala-D-ala as substrate up to 5 mM preincubated for 30 mins measured after 150 secs by modified Cd-ninhydrin method
T2 sequence (whole entry): T1 sequence (Q06241 whole entry)

[6] = target: T1, D-alanyl-D-alanine dipeptidase; experiment: Competitive inhibition of Enterococcus faecium VanX overexpressed in Escherichia coli BL21 (DE3) cells using D-ala-D-ala as substrate preincubated for 3 mins measured after 150 secs by modified Cd-ninhydrin method

| Structure (SMILES) | inhibition [1] | inhibition [2] | IC50 [3] | inhibition [4] | inhibition [5] | IC50 [6] |
| --- | --- | --- | --- | --- | --- | --- |
| CC[C@H](C)[C@@H](OP(=O)(O)[C@H](C)N)C(=O)O | inactive | inactive | 1310 µM | inactive |  |  |
| CC(C)C[C@@H](OP(=O)(O)[C@H](C)N)C(=O)O | inactive | inactive | 1080 µM | inactive |  |  |
| C[C@H](N)P(=O)(O)OCC(=O)O | inactive | inactive | 480 µM | inactive |  |  |
| C[C@H](N)P(=O)(O)O[C@H](CCC(=O)O)C(=O)O | inactive | inactive |  | inactive | inactive |  |
| C[C@H](N)P(=O)(O)O[C@H](C)C(=O)O | inactive | inactive |  | inactive |  | 760 µM |
| C[C@H](N)P(=O)(O)O[C@H](Cc1ccccc1)C(=O)O | inactive | inactive | 8210 µM | inactive |  |  |
| CC(C)[C@@H](OP(=O)(O)[C@H](C)N)C(=O)O | inactive | inactive | 2820 µM | inactive |  |  |
